The values that follow come from patent US12649751B2 (Arcus Biosciences, Inc., priority 2022, dated 2026).

Structures are written as SMILES. Where two headings read alike, the source gives them in different places.

For one test, the target named is HPK1 (Homo sapiens, UniProt Q92918). The experiment in a line: HPK1 Biochemical Assay (ADP-Glo luminescence; low ATP 10 μM or high ATP 200 μM). (ADP-Glo first removes unused ATP, then detects ADP through luciferase.)
Test [1] relates to p-SLP-76 (Ser376) in Jurkat cells. Description: pSLP76 Cellular Assay (AlphaLISA SureFire Ultra p-SLP-76 (Ser376), anti-CD3 activated Jurkat cells). It is filed as cell-based. The settings on record: Homo sapiens; Jurkat cells, anti-CD3 stimulation, pSLP76; read-out: Cellular Potency. An outline of the steps:
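Jurkat cells, serum-starved overnight in Opti-MEM then in HBSS, preincubated 1 h at 37 °C with 22-point 2-fold compound dilutions, then stimulated with anti-CD3 (0.025 mg/ml added solution) for 45 min. Lysate p-SLP-76 (Ser376) measured by AlphaLISA at 570 nm; IC50 from 4-parameter logistic fit.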

Where [2] appears, read: 2 nM HPK1, 10 μM ATP, read-out: Biochemical Potency (low ATP).

HPK1, sequence (Q92918 whole entry, species assumed): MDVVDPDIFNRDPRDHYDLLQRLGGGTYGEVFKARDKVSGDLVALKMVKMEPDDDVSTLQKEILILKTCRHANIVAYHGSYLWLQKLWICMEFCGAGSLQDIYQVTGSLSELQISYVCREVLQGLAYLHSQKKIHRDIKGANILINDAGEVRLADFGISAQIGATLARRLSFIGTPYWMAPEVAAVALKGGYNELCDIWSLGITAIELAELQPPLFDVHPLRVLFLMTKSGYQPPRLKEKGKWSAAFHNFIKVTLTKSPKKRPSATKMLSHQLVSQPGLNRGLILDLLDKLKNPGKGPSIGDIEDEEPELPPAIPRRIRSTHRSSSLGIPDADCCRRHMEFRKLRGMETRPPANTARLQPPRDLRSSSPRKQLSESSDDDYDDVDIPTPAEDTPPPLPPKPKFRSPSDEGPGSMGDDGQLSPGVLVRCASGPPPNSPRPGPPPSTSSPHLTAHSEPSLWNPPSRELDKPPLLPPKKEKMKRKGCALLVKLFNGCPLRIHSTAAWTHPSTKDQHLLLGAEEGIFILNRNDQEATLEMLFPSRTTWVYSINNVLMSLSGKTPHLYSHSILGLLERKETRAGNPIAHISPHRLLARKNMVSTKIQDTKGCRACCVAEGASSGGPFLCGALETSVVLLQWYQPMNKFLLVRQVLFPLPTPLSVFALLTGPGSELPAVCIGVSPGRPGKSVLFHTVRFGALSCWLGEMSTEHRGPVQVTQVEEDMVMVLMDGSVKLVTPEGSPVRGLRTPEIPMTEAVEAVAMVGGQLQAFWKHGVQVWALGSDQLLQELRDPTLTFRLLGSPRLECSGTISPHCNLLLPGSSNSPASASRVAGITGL

Turning to `Cc1cccnc1-c1nc2cc(Nc3cnc(C)c(N4C[C@@H]5C[C@H]4CN5)n3)ncc2s1` [Example 148, 6-[(1S,4S)-2,5-Diazabicyclo[2.2.1]heptan-2-yl]-5-methyl-N-[2-(3-methylpyridin-2-yl)-[1,3]thiazolo[5,4-c]pyridin-6-yl]pyrazin-2-amine], the IC50 (on HPK1 (setting [2]); in test [1]) was under 100 nM in each case.
In the case of `Cc1cccnc1-c1nc2cc(Nc3ccnc(N4C[C@@H](N)C[C@H]4CO)n3)ncc2s1` [Example 155, [(2S,4S)-4-Mmino-1-(4-{[2-(3-methylpyridin-2-yl)-[1,3]thiazolo[5,4-c]pyridin-6-yl]amino}pyrimidin-2-yl)pyrrolidin-2-yl]methanol], the results for the IC50 (on HPK1 (setting [2]); in test [1]) were under 100 nM and 100 to 1000 nM, respectively.
On the same counts, the results for `CN1C[C@@H]2C[C@H]1CN2c1nccc(Nc2cc3nc(-c4ccncc4)sc3cn2)n1` [Example 159, 2-[(1S,4S)-5-Methyl-2,5-diazabicyclo[2.2.1]heptan-2-yl]-N-[2-(pyridin-4-yl)-[1,3]thiazolo[5,4-c]pyridin-6-yl]pyrimidin-4-amine] are under 100 nM and 100 to 1000 nM.
Taken in the same sequence, the figures for `Cc1cc(Nc2cc3nc(-c4ncccc4C)sc3cn2)nc(N2C[C@@H]3C[C@H]2CN3C)n1` [Example 160, 6-Methyl-2-[(1S,4S)-5-methyl-2,5-diazabicyclo[2.2.1]heptan-2-yl]-N-[2-(3-methylpyridin-2-yl)-[1,3]thiazolo[5,4-c]pyridin-6-yl]pyrimidin-4-amine] were under 100 nM and under 100 nM.
Take `Cc1cc(Nc2cc3nc(-c4ncccc4C)sc3cn2)nc(O[C@H]2CCNC2)c1` [Example 164, 4-Methyl-N-[2-(3-methylpyridin-2-yl)-[1,3]thiazolo[5,4-c]pyridin-6-yl]-6-[(3S)-pyrrolidin-3-yloxy]pyridin-2-amine]: the IC50 on HPK1 (setting [2]) was under 100 nM; in test [1], 100 to 1000 nM.
Taken in the same sequence, the figures for `Cc1cc(Nc2cc3nc(-c4cccnc4)sc3cn2)nc(O[C@H]2CCNC2)c1` [Example 167, 4-Methyl-N-[2-(pyridin-3-yl)-[1,3]thiazolo[5,4-c]pyridin-6-yl]-6-[(3S)-pyrrolidin-3-yloxy]pyridin-2-amine] were under 100 nM and under 100 nM.
Taken in the same sequence, the figures for `Cc1cc(-c2nc3cc(Nc4ccc(C)c(O[C@H]5CCNC5)n4)ncc3s2)ccn1` [Example 172, 5-Methyl-N-[2-(2-methylpyridin-4-yl)-[1,3]thiazolo[5,4-c]pyridin-6-yl]-6-[(3S)-pyrrolidin-3-yloxy]pyridin-2-amine] were under 100 nM and under 100 nM.
Taken in the same sequence, the figures for `Cc1cc(Nc2cc3nc(-c4c(F)cccc4F)sc3cn2)nc(O[C@H]2CCNC2)c1` [Example 175, N-[2-(2,6-Difluorophenyl)-[1,3]thiazolo[5,4-c]pyridin-6-yl]-4-methyl-6-[(3S)-pyrrolidin-3-yloxy]pyridin-2-amine] were under 100 nM and 100 to 1000 nM.
Consider `Cc1cc(Nc2cc3nc(-c4c(C)cccc4F)sc3cn2)nc(O[C@H]2CCNC2)c1` [Example 178, N-[2-(2-Fluoro-6-methylphenyl)-[1,3]thiazolo[5,4-c]pyridin-6-yl]-4-methyl-6-[(3S)-pyrrolidin-3-yloxy]pyridin-2-amine], for which the figures for the IC50 (at HPK1 (setting [2]); in test [1]) were under 100 nM and 100 to 1000 nM, respectively.
On the same counts, the results for `Cc1ccc(Nc2cc3nc(-c4ccnn4C)sc3cn2)nc1O[C@H]1CCNC1` [Example 182, 5-Methyl-N-[2-(1-methyl-1H-pyrazol-5-yl)-[1,3]thiazolo[5,4-c]pyridin-6-yl]-6-[(3S)-pyrrolidin-3-yloxy]pyridin-2-amine] are under 100 nM and 100 to 1000 nM.
Turning to `Cc1ccnn1-c1nc2cc(Nc3ccc(N4CCOCC4)c(CN4CCCC4)n3)ncc2s1` [Example 194, N-[2-(5-Methyl-1H-pyrazol-1-yl)-[1,3]thiazolo[5,4-c]pyridin-6-yl]-5-(morpholin-4-yl)-6-[(pyrrolidin-1-yl)methyl]pyridin-2-amine], the IC50 (at HPK1 (setting [2]); in test [1]) was under 100 nM each time.
In the case of `Cc1ccc(Nc2cc3nc(-n4nccc4C)sc3cn2)nc1CN1CCCC1` [Example 197, 5-Methyl-N-[2-(5-methyl-1H-pyrazol-1-yl)-[1,3]thiazolo[5,4-c]pyridin-6-yl]-6-[(pyrrolidin-1-yl)methyl]pyridin-2-amine], the IC50 on HPK1 (setting [2]) is under 100 nM; in test [1], 100 to 1000 nM.
On the same counts, the results for `Cc1ccc(Nc2cc3nc(-n4nccc4C)sc3cn2)nc1CN[C@H]1CCOC1` [Example 198, 5-Methyl-N-[2-(5-methyl-1H-pyrazol-1-yl)-[1,3]thiazolo[5,4-c]pyridin-6-yl]-6-({[(3S)-oxolan-3-yl]amino}methyl)pyridin-2-amine] are under 100 nM and over 5000 nM.
For `Cc1ccc(Nc2cc3nc(-n4cccn4)sc3cn2)nc1CN1CCCC1` [Example 200, 5-Methyl-N-[2-(1H-pyrazol-1-yl)-[1,3]thiazolo[5,4-c]pyridin-6-yl]-6-[(pyrrolidin-1-yl)methyl]pyridin-2-amine], the IC50 on HPK1 (setting [2]) was under 100 nM; in test [1], 1000 to 5000 nM.
Regarding `Cc1ccnn1-c1nc2cc(Nc3cccc(N4C[C@@H]5C[C@H]4CN5C)n3)ncc2s1` [Example 205, N-[2-(5-Methyl-1H-pyrazol-1-yl)-[1,3]thiazolo[5,4-c]pyridin-6-yl]-6-[(1S,4S)-5-methyl-2,5-diazabicyclo[2.2.1]heptan-2-yl]pyridin-2-amine], the IC50 is under 100 nM on HPK1 (setting [2]); under 100 nM at HPK1 (5 nM HPK1, 200 μM ATP, read-out: Biochemical Potency (high ATP)); 100 to 1000 nM in test [1].
As to `CN1C[C@@H]2C[C@H]1CN2c1cccc(Nc2cc3nc(-n4cccn4)sc3cn2)n1` [Example 206, 6-[(1S,4S)-5-Methyl-2,5-diazabicyclo[2.2.1]heptan-2-yl]-N-[2-(1H-pyrazol-1-yl)-[1,3]thiazolo[5,4-c]pyridin-6-yl]pyridin-2-amine], the IC50 on HPK1 (setting [2]) is under 100 nM; in test [1], 100 to 1000 nM.
Taken in the same sequence, the figures for `Cc1ccnn1-c1nc2cc(Nc3ccc(C4CCOCC4)c(CN[C@H]4CCOC4)n3)ncc2s1` [Example 209, N-[2-(5-Methyl-1H-pyrazol-1-yl)-[1,3]thiazolo[5,4-c]pyridin-6-yl]-5-(oxan-4-yl)-6-({[(3S)-oxolan-3-yl]amino}methyl)pyridin-2-amine] were under 100 nM and 1000 to 5000 nM.
On the same counts, the results for `c1cnn(-c2nc3cc(Nc4ccc(C5CCOCC5)c(CN5CCCC5)n4)ncc3s2)c1` [Example 210, 5-(Oxan-4-yl)-N-[2-(1H-pyrazol-1-yl)-[1,3]thiazolo[5,4-c]pyridin-6-yl]-6-[(pyrrolidin-1-yl)methyl]pyridin-2-amine] are under 100 nM and 100 to 1000 nM.
Regarding `Cc1cccnc1-c1nc2cc(Nc3ccc(C4CCOCC4)c(CN4CCCC4)n3)ncc2s1` [Example 212, N-[2-(3-Methylpyridin-2-yl)-[1,3]thiazolo[5,4-c]pyridin-6-yl]-5-(oxan-4-yl)-6-[(pyrrolidin-1-yl)methyl]pyridin-2-amine], the IC50 (at HPK1 (setting [2]); in test [1]) was under 100 nM in each case.
Turning to `Cc1cccnc1-c1nc2cc(Nc3ccc(C4CCOCC4)c(CN4CC[C@H](F)C4)n3)ncc2s1` [Example 214, 6-{[(3S)-3-Fluoropyrrolidin-1-yl]methyl}-N-[2-(3-methylpyridin-2-yl)-[1,3]thiazolo[5,4-c]pyridin-6-yl]-5-(oxan-4-yl)pyridin-2-amine], the IC50 on HPK1 (setting [2]) is under 100 nM; in test [1], 100 to 1000 nM.
Taken in the same sequence, the figures for `c1cc(-c2nc3cc(Nc4ccc(C5CCOCC5)c(CN5CCCC5)n4)ncc3s2)ccn1` [Example 216, 5-(Oxan-4-yl)-N-[2-(pyridin-4-yl)-[1,3]thiazolo[5,4-c]pyridin-6-yl]-6-[(pyrrolidin-1-yl)methyl]pyridin-2-amine] were under 100 nM and under 100 nM.
On the same counts, the results for `Cn1ccnc1-c1nc2cc(Nc3ccc(C4CCOCC4)c(CN4CCCC4)n3)ncc2s1` [Example 217, N-[2-(1-Methyl-1H-imidazol-2-yl)-[1,3]thiazolo[5,4-c]pyridin-6-yl]-5-(oxan-4-yl)-6-[(pyrrolidin-1-yl)methyl]pyridin-2-amine] are under 100 nM and under 100 nM.
Taken in the same sequence, the figures for `Cc1cc(-c2nc3cc(Nc4ccc(C5CCOCC5)c(CN5CCC(F)(F)C5)n4)ncc3s2)ccn1` [Example 220, 6-[(3,3-Difluoropyrrolidin-1-yl)methyl]-N-[2-(2-methylpyridin-4-yl)-[1,3]thiazolo[5,4-c]pyridin-6-yl]-5-(oxan-4-yl)pyridin-2-amine] were under 100 nM and 100 to 1000 nM.
For `Cc1cc(-c2nc3cc(Nc4ccc(C5CCOCC5)c(CN[C@H]5CCOC5)n4)ncc3s2)ccn1` [Example 221, N-[2-(2-Methylpyridin-4-yl)-[1,3]thiazolo[5,4-c]pyridin-6-yl]-5-(oxan-4-yl)-6-({[(3S)-oxolan-3-yl]amino}methyl)pyridin-2-amine], the values for the IC50 (on HPK1 (setting [2]); in test [1]) were under 100 nM and 100 to 1000 nM, respectively.
On the same counts, the results for `FC(F)n1cc(-c2nc3cc(Nc4ccc(C5CCOCC5)c(CN5CCCC5)n4)ncc3s2)cn1` [Example 224, N-{2-[1-(Difluoromethyl)-1H-pyrazol-4-yl]-[1,3]thiazolo[5,4-c]pyridin-6-yl}-5-(oxan-4-yl)-6-[(pyrrolidin-1-yl)methyl]pyridin-2-amine] are under 100 nM and 1000 to 5000 nM.
On the same counts, the results for `c1cncc(-c2nc3cc(Nc4ccc(C5CCOCC5)c(CN5CCCC5)n4)ncc3s2)c1` [Example 225, 5-(Oxan-4-yl)-N-[2-(pyridin-3-yl)-[1,3]thiazolo[5,4-c]pyridin-6-yl]-6-[(pyrrolidin-1-yl)methyl]pyridin-2-amine] are under 100 nM and 100 to 1000 nM.
